Experimental data reported in article PMC7531004, “Discovery of gramicidin A analogues with altered activities by multidimensional screening of a one-bead-one-compound library” (Nature Communications, 2020).
Where a SMILES comes first, the peptide text is derived from it. [ ]: non-standard residue; d: D form. The star is where a group is joined. NHCH2CH2OH = OCCN*; For = O=C*

Legend:
[1] = H+/Na+ transport assay of bead-derived peptides (one-point); assay type: biochemical; design: key: relative activity; mean of two control wells = 1.00; conditions: bead-derived peptide solution, EYPC/EYPG LUVs;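 note: relative to parent gramicidin A activity set to 1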
Outline: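 Pyranine (1.0 mM)-loaded LUVs containing egg yolk phosphatidylglycerol were prepared by film hydration, sonication and extrusion, then mixed with diluted bead-derived peptide in 96-well format and vortexed 30 min at room temperature. Fluorescence was normalized between untreated LUVs (0%) and Triton X-100 lysis (100%).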

[2] = system: Streptococcus pyogenes SSI-9; experiment: Antibacterial activity assay of bead-derived peptides (three concentrations); assay type: cell-based; design: key: +++: inhibition by the 640-fold diluted peptide solution; ++: inhibition by the 160-fold diluted solution; +: inhibition by the 40-fold diluted solution; -: no inhibition; conditions: S. pyogenes, bead-derived peptide solution, three concentrations
Outline: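 Bead-derived library peptide stocks in DMSO were tested undiluted and after 4- and 16-fold DMSO dilution against S. pyogenes SSI-9 (2 × 10^5 CFU/well) in cation-adjusted Mueller Hinton Broth with 5% laked horse blood. After 18 h at 37 °C, wells were scored for precipitation of grown cells.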

[3] = cell viability/%
Outline: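 First, library peptide stocks are diluted 250-fold in RPMI1640 with 10% heat-inactivated FBS. Next, they are mixed with P388 cells to give 1 × 10^4 cells/mL and incubated 92 h at 37 °C, 5% CO2. Finally, viability (%) is scored by WST-1 absorbance at 415 nm.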

Structure (SMILES)	H+/Na+ transport activity normalized against the value of 1 (1.00) [1]	antibacterial activity [2]	viability [3]
CC(C)C[C@@H](NC(=O)[C@H](C)NC(=O)[C@H](NC(=O)[C@H](C)NC(=O)CNC(=O)[C@@H](NC=O)C(C)C)C(C)C)C(=O)N[C@H](C(=O)N[C@H](CC(C)C)C(=O)N[C@@H](Cc1c[nH]c2ccccc12)C(=O)N[C@@H](C(=O)N[C@@H](Cc1c[nH]c2ccccc12)C(=O)N[C@@H](C(=O)N[C@@H](Cc1c[nH]c2ccccc12)C(=O)N[C@H](CC(C)C)C(=O)N[C@@H](Cc1c[nH]c2ccccc12)C(=O)NCCO)[C@H](C)O)C(C)C)C(C)C [compound 3205] (For-VGA[dV]A[dL]V[dL]W[dV]W[dT]W[dL]W-NHCH2CH2OH)	1.16	-	90.2%
CC(C)C[C@@H](NC(=O)[C@H](Cc1c[nH]c2ccccc12)NC(=O)[C@H](NC(=O)[C@H](Cc1c[nH]c2ccccc12)NC(=O)[C@@H](CC(C)C)NC(=O)[C@@H](NC(=O)[C@H](NC(=O)[C@H](C)NC(=O)[C@H](NC(=O)[C@H](C)NC(=O)CNC(=O)[C@@H](NC=O)C(C)C)C(C)C)C(C)C)C(C)C)[C@H](C)O)C(=O)N[C@@H](Cc1c[nH]c2ccccc12)C(=O)N[C@@H](C(=O)N[C@@H](Cc1c[nH]c2ccccc12)C(=O)NCCO)C(C)C [compound 3161] (For-VGA[dV]A[dV]V[dL]W[dT]W[dL]W[dV]W-NHCH2CH2OH)	1.00	-	100%
CC(C)C[C@@H](NC(=O)[C@H](C)NC(=O)CNC(=O)[C@@H](NC=O)C(C)C)C(=O)N[C@@H](C)C(=O)N[C@@H](C(=O)N[C@H](C(=O)N[C@@H](C(=O)N[C@@H](Cc1c[nH]c2ccccc12)C(=O)N[C@H](CC(C)C)C(=O)N[C@@H](Cc1c[nH]c2ccccc12)C(=O)N[C@@H](C(=O)N[C@@H](Cc1c[nH]c2ccccc12)C(=O)N[C@@H](C(=O)N[C@@H](Cc1c[nH]c2ccccc12)C(=O)NCCO)C(C)C)C(C)C)C(C)C)C(C)C)[C@H](C)O [compound 6549] (For-VGA[dL]A[dT]V[dV]W[dL]W[dV]W[dV]W-NHCH2CH2OH)	1.07	-	100%
CC(C)C[C@@H](NC(=O)[C@H](C)NC(=O)CNC(=O)[C@@H](NC=O)C(C)C)C(=O)N[C@@H](C)C(=O)N[C@@H](C(=O)N[C@H](C(=O)N[C@@H](C(=O)N[C@@H](Cc1c[nH]c2ccccc12)C(=O)N[C@H](CC(C)C)C(=O)N[C@@H](Cc1c[nH]c2ccccc12)C(=O)N[C@H](CC(C)C)C(=O)N[C@@H](Cc1c[nH]c2ccccc12)C(=O)N[C@H](CC(C)C)C(=O)N[C@@H](Cc1c[nH]c2ccccc12)C(=O)NCCO)C(C)C)C(C)C)[C@H](C)O [compound 9098] (For-VGA[dL]A[dT]V[dV]W[dL]W[dL]W[dL]W-NHCH2CH2OH)	1.13	-	51%
CC(C)C[C@@H](NC(=O)[C@H](C)NC(=O)CNC(=O)[C@@H](NC=O)C(C)C)C(=O)N[C@@H](C)C(=O)N[C@@H](C(=O)N[C@H](C(=O)N[C@@H](C(=O)N[C@@H](Cc1c[nH]c2ccccc12)C(=O)N[C@@H](C(=O)N[C@@H](Cc1c[nH]c2ccccc12)C(=O)N[C@@H](C(=O)N[C@@H](Cc1c[nH]c2ccccc12)C(=O)N[C@@H](C(=O)N[C@@H](Cc1c[nH]c2ccccc12)C(=O)NCCO)[C@H](C)O)C(C)C)C(C)C)C(C)C)C(C)C)C(C)C [compound 762] (For-VGA[dL]A[dV]V[dV]W[dV]W[dV]W[dT]W-NHCH2CH2OH)	1.01	-	96.8%
CC(C)C[C@@H](NC(=O)[C@@H](NC(=O)[C@H](NC(=O)[C@H](C)NC(=O)[C@H](NC(=O)[C@H](C)NC(=O)CNC(=O)[C@@H](NC=O)C(C)C)C(C)C)C(C)C)C(C)C)C(=O)N[C@@H](Cc1c[nH]c2ccccc12)C(=O)N[C@@H](C(=O)N[C@@H](Cc1c[nH]c2ccccc12)C(=O)N[C@@H](C(=O)N[C@@H](Cc1c[nH]c2ccccc12)C(=O)N[C@@H](C(=O)N[C@@H](Cc1c[nH]c2ccccc12)C(=O)NCCO)C(C)C)C(C)C)C(C)C [compound 885] (For-VGA[dV]A[dV]V[dL]W[dV]W[dV]W[dV]W-NHCH2CH2OH)	1.03	-	93.4%
CC(C)[C@H](NC=O)C(=O)NCC(=O)N[C@@H](C)C(=O)N[C@@H](C(=O)N[C@@H](C)C(=O)N[C@@H](C(=O)N[C@H](C(=O)N[C@@H](C(=O)N[C@@H](Cc1c[nH]c2ccccc12)C(=O)N[C@@H](C(=O)N[C@@H](Cc1c[nH]c2ccccc12)C(=O)N[C@@H](C(=O)N[C@@H](Cc1c[nH]c2ccccc12)C(=O)N[C@@H](C(=O)N[C@@H](Cc1c[nH]c2ccccc12)C(=O)NCCO)C(C)C)C(C)C)[C@H](C)O)C(C)C)C(C)C)C(C)C)C(C)C [compound 532] (For-VGA[dV]A[dV]V[dV]W[dT]W[dV]W[dV]W-NHCH2CH2OH)	1.03	-	100%
CNC(=O)C[C@@H](NC(=O)[C@H](Cc1c[nH]c2ccccc12)NC(=O)[C@@H](CC(C)C)NC(=O)[C@@H](NC(=O)[C@@H](CC(C)C)NC(=O)[C@H](C)NC(=O)[C@H](NC(=O)[C@H](C)NC(=O)CNC(=O)[C@@H](NC=O)C(C)C)[C@H](C)O)C(C)C)C(=O)N[C@@H](Cc1c[nH]c2ccccc12)C(=O)N[C@H](CC(C)C)C(=O)N[C@@H](Cc1c[nH]c2ccccc12)C(=O)N[C@H](CC(C)C)C(=O)N[C@@H](Cc1c[nH]c2ccccc12)C(=O)NCCO [compound 5284] (For-VGA[dT]A[dL]V[dL]W[dD](NHMe)W[dL]W[dL]W-NHCH2CH2OH)	1.02	-	100%
CC(C)C[C@@H](NC(=O)[C@H](Cc1c[nH]c2ccccc12)NC(=O)[C@H](NC(=O)[C@H](Cc1c[nH]c2ccccc12)NC(=O)[C@@H](CC(C)C)NC(=O)[C@@H](NC(=O)[C@H](NC(=O)[C@H](C)NC(=O)[C@H](NC(=O)[C@H](C)NC(=O)CNC(=O)[C@@H](NC=O)C(C)C)C(C)C)C(C)C)C(C)C)C(C)C)C(=O)N[C@@H](Cc1c[nH]c2ccccc12)C(=O)N[C@@H](C(=O)N[C@@H](Cc1c[nH]c2ccccc12)C(=O)NCCO)[C@H](C)O [compound 8580] (For-VGA[dV]A[dV]V[dL]W[dV]W[dL]W[dT]W-NHCH2CH2OH)	1.01	+	60.6%
CC(C)C[C@@H](NC(=O)[C@@H](NC(=O)[C@H](NC(=O)[C@H](C)NC(=O)[C@H](NC(=O)[C@H](C)NC(=O)CNC(=O)[C@@H](NC=O)C(C)C)[C@H](C)O)C(C)C)C(C)C)C(=O)N[C@@H](Cc1c[nH]c2ccccc12)C(=O)N[C@@H](C(=O)N[C@@H](Cc1c[nH]c2ccccc12)C(=O)N[C@@H](C(=O)N[C@@H](Cc1c[nH]c2ccccc12)C(=O)N[C@@H](C(=O)N[C@@H](Cc1c[nH]c2ccccc12)C(=O)NCCO)C(C)C)C(C)C)C(C)C [compound 3019] (For-VGA[dT]A[dV]V[dL]W[dV]W[dV]W[dV]W-NHCH2CH2OH)	1.12	-	100%
CC(C)C[C@@H](NC(=O)[C@@H](NC(=O)[C@H](NC(=O)[C@H](C)NC(=O)[C@H](NC(=O)[C@H](C)NC(=O)CNC(=O)[C@@H](NC=O)C(C)C)[C@H](C)O)C(C)C)C(C)C)C(=O)N[C@@H](Cc1c[nH]c2ccccc12)C(=O)N[C@@H](C(=O)N[C@@H](Cc1c[nH]c2ccccc12)C(=O)N[C@@H](C(=O)N[C@@H](Cc1c[nH]c2ccccc12)C(=O)N[C@@H](C(=O)N[C@@H](Cc1c[nH]c2ccccc12)C(=O)NCCO)C(C)C)C(C)C)[C@H](C)O [compound 1156] (For-VGA[dT]A[dV]V[dL]W[dT]W[dV]W[dV]W-NHCH2CH2OH)	1.03	-	85.9%
CC(C)C[C@@H](NC(=O)[C@H](Cc1c[nH]c2ccccc12)NC(=O)[C@H](NC(=O)[C@@H](NC(=O)[C@H](NC(=O)[C@H](C)NC(=O)[C@H](NC(=O)[C@H](C)NC(=O)CNC(=O)[C@@H](NC=O)C(C)C)C(C)C)C(C)C)C(C)C)C(C)C)C(=O)N[C@@H](Cc1c[nH]c2ccccc12)C(=O)N[C@@H](C(=O)N[C@@H](Cc1c[nH]c2ccccc12)C(=O)N[C@@H](C(=O)N[C@@H](Cc1c[nH]c2ccccc12)C(=O)NCCO)C(C)C)C(C)C [compound 169] (For-VGA[dV]A[dV]V[dV]W[dL]W[dV]W[dV]W-NHCH2CH2OH)	1.04	++	100%
CC(C)C[C@@H](NC(=O)[C@H](C)NC(=O)CNC(=O)[C@@H](NC=O)C(C)C)C(=O)N[C@@H](C)C(=O)N[C@@H](C(=O)N[C@H](C(=O)N[C@H](CC(C)C)C(=O)N[C@@H](Cc1c[nH]c2ccccc12)C(=O)N[C@@H](C(=O)N[C@@H](Cc1c[nH]c2ccccc12)C(=O)N[C@H](CC(C)C)C(=O)N[C@@H](Cc1c[nH]c2ccccc12)C(=O)N[C@@H](C(=O)N[C@@H](Cc1c[nH]c2ccccc12)C(=O)NCCO)C(C)C)[C@H](C)O)C(C)C)C(C)C [compound 1253] (For-VGA[dL]A[dV]V[dL]W[dT]W[dL]W[dV]W-NHCH2CH2OH)	1.03	-	58.1%
